In patent US7741464B2, “Compositions and methods of using CRMP-1 and its fragments for treating cancer” (Advpharma Inc., priority 2007, dated 2010):
Like-named read-outs stand apart in the source and are kept apart here.

Experiments:
[1] = test system: DU145 cells; assay: Antiproliferative effect after transient transfection; type: cell-based, human; settings: for selectivity on antiproliferative ability: prostate cancer cells (PC-3, DU145) vs human prostate normal cell line PZ-HPV-7
Text: (§1) All cell lines were purchased from Food Industry Research and Development Institute (FIRDI), Hsinshu, Taiwan. They were originated from different tissues or organs, including: • (1) human lung cancer cells: adenocarcinoma A549 (BCRC60074), squamous cell carcinoma H520 (BCRC60124), and large-cell carcinoma H460 (CCRC600373), • (2) human prostate cancer cell: adenocarcinoma PC-3 (CCRC60112) and carcinoma DU145 (CCRC60348) isolated from metastatic brain site; • (3) human colon cancer cells: adenocarcinoma SW 480 (CCRC60249), CC-M1 (BCRC60448), and DLD-1 (CCRC60132); • (4) human breast cancer cells: ductal carcinoma BT-474 (CCRC 60359), MCF-7 (CCRC60436), and ZR-75-1 (CCRC60055); • (5) Chinese hamster lung cell V79-4 (BCRC60183), and • (6) human prostate normal cell PZ-HPV-7 (CCRC60136).
(§2) The cultivation of cell lines was as described as the instruction provided by Food Industry Research and Development Institute (FIRDI), while 10% fetal bovine serum (JRH Biosciences, USA) was supplemented as final concentration, if necessary. The human prostate normal cell line PZ-HPV-7 was maintained in Keratinocyte-SFM medium (Life Technologies, Inc., US).
(§3) Mammalian cells were seeded to 6-well plate (Corning Inc., USA) with a cell density of 2˜8×10^5 and incubated at 37° C. for overnight prior to transfection. Each cell line was respectively transfected with the pCI-neo Mammalian Expression Vector (as control plasmid; Promega, USA) or with the hCRMP-1-related expression plasmid by using Lipofectamine™ Reagent (Invitrogen, #18324-020). A series of expression plasmid containing full-length or partial gene fragment of hCRMP-1, were pNCRMP1, pNCN1, pNCN3, pNCN4, pNCN5, pNCN6, and pNCN7, whose constructions were described in Example 1 and Example 2.
(§4) The nomenclature of transfected cell line was according to the cell line and expression plasmid and characterized as “cell line/expression plasmid.” Quantitation of viable cells after transfection was performed by using hemocytometer after 5-days incubation at 37° C. (R. Ian Freshney: Culture of Animal Cells, A Manual of Basic Technique, Chapter 20, pp. 309-312, WILEY-LISS, Canada (2000)).
(§5) The antiproliferative effect (in percentage) of each cell line transfected with individual expression plasmid was normalized with the same cell line transfected with control plasmid as follows: Antiproliferative effect=100%×(1−(number of cells transfected with expression plasmid÷number of cells transfected with control plasmid))

[2] = test system: transient transfected colorectal cell lines (Caco-2, CC-M1, DLD-1); assay: Chemosensitivity of transient transfectants (cell counting); type: cell-based, human; settings: with pNCRMP1 or pNCN3 transient transfected colorectal cell lines; data not shown
Procedure: (§6) Six human cancer cell lines, including human colon cancer cell lines Caco-2, CC-M1, DLD-1; human prostate cancer cell lines DU145, PC-3; and human breast cancer cell line MCF-7, were tested in an experiment on improvement of chemosensitivity. Two expression plasmids, pNCRMP1 and pNCN3, and the pCI-neo vector (control plasmid), were used for transfection, respectively. The general cultivation conditions and transfection procedures were the same as described in Example 3.
(§7) Treatment of transient transfected cell lines using chemical agent was immediately performed as follows, and quantification of viable cells was performed by counting using hemocytometer after 3-days incubation at 37° C.: • (1) Three types of transient transfected human colorectal cancer cells were treated with 5-fluorouracil; • (2) The transient transfected human prostate cancer cell line DU145 was treated with Adriamycin™ (doxorubicin), cyclophosphamide and etoposide; • (3) The transient transfected human prostate cancer cell line PC3 was treated with cyclophosphamide, etoposide, and paclitaxel; and, • (4) The transient transfected human breast cancer cell line MCF-7 was treated with Adriamycin™ (doxorubicin) and paclitaxel.

[3] = test system: CC-M1 cells; assay: Antiproliferative effect after transient transfection; type: cell-based, human; settings: 5-days incubation, normalized to pCI-neo control plasmid
Text: as §1, §2, §3, §4, §5

[4] = test system: H460 cells; assay: as above; type: cell-based, human; settings: viable cells counted after 5-days incubation, normalized to pCI-neo control plasmid
Text: as §1, §2, §3, §4, §5

[5] = test system: MCF-7 cells; assay: as above; type: cell-based, human; settings: MCF-7, transient transfection, 5-days incubation, normalized to pCI-neo control plasmid
Text: as §1, §2, §3, §4, §5

[6] = test system: PC-3 cells; assay: as above; type: cell-based, human; settings: PC-3, transient transfection, 5-days incubation, normalized to pCI-neo control plasmid
Text: as §1, §2, §3, §4, §5

[7] = test system: poorly differenciated human lung adenocarcinoma cells; settings: cells established from a patient; Shih et al., J. Natl. Cancer Inst. 93(18) (2001); cited from earlier work
[8] = test system: PC-3 transient transfectants; assay: Chemosensitivity of transient transfectants (cell counting); type: cell-based; settings: Homo sapiens, 72 h
Procedure: as §6, §7

[9] = test system: DU145 transient transfectants; assay: as above; type: cell-based, human; settings: read-out: IC50 of chemical agent
Procedure: as §6, §7

[10] = test system: H520 stable transfectants; assay: Chemosensitivity (MTT cytotoxicity) of stable transfectants; type: cell-based; settings: Homo sapiens, read-out: IC50 of chemical agent
Text: Three human cancer cell lines, including lung cancer cell line H520 and two human prostate cancer cell lines (PC-3 and DU145) were applied for selection of stable transfectants. Four expression plasmids, including pNCRMP1, pNCN1, pNCN3, and pNCN4, and the pCI-neo vector (as control plasmid) were used for transfection, respectively. The general cultivation condition and transfection procedures were the same as described in Example 3. The transfected cells were further cultivated under the same conditions as their parental cell lines and selected with 0.6-1 mg antibiotic G418 per ml (Kao et al., Oncogene 16: 546-554 (1998); Xiaolin et al, Cancer Research 65: 9762-9770 (2005)).
Three agents, including caffeic acid phenethyl ester (CAPE; Sigma, US), Adriamycin™ (doxorubicin) (Pharmacia & Upjohn S.P.A. Milan, Italy), and paclitaxel (Taxol; Bristol-Myers Squibb Co., Wallingford, Conn.), were dissolved in DMSO (dimethyl sulfoxide; Sigma) for preparation of stock solution, respectively. A serial dilution was prepared with DPBS buffer for chemosensitivity tests. The human lung squamous carcinoma stable transfectants H520 were treated with both CAPE and Adriamycin™ (doxorubicin) for four different concentrations, e.g. 0.05, 0.01, 0.002, and 0.0004 mM, while the administering of paclitaxel was performed at different concentrations, e.g. 1000, 200, 40, and 8 nM. Both types of prostate stable transfectants were only treated with paclitaxel for eight concentrations ranging from 0.1 mM to 1.28 nM with 1/5 dilution each step.
MTT (3-(4,5-dimethylthiazol-2-yl)-2,5-diphenyltetrazolium bromide; Sigma, Inc.) assay (Monks et al., J. Natl. Cancer Inst. 83:757-766 (1991); Paull et al, J. Natl. Cancer Inst. 81:1088-1092 (1989)) was applied for studying the cytotoxic effect of indicated agent. The absorbance was measured both at 545 nm and at 690 nm (served as reference) using the 96-well spectrophotometer reader (Emax, Molecular Device Inc., California, US) (Chen et al., Yi Xue Za Zhi (Taipei) 46:7-16 (1990)). The relative growth inhibition was calculated as follows: Relative growth inhibition=100%×(1−(OD545nm (Treated cells)−OD690nm(Treated cells))÷(OD545nm(untreated cells)−OD690nm(untreated cells)))
The 50% inhibition concentration (IC50) was determined after graphical plotting of spectrophotometric measurements and interpolation by EXCEL software.

[11] = test system: MCF-7 transient transfectants; assay: Chemosensitivity of transient transfectants (cell counting); type: cell-based; settings: Homo sapiens, MCF7, 72 h, read-out: IC50 of chemical agent
Procedure: as §6, §7

[12] = NCI-H520, stable transfectant H520/pCI-neo/1 (control plasmid), MTT
[13] = NCI-H520, stable transfectant H520/pNCN1/1, MTT
[14] = NCI-H520, stable transfectant H520/pNCN3/1, MTT
[15] = NCI-H520, stable transfectant H520/pNCN4/1, MTT
[16] = NCI-H520, stable transfectant H520/pNCRMP1/1, MTT
[17] = Homo sapiens, DU-145, 72 h, transient transfectant DU145/pCIneo (control plasmid), 3-days incubation
[18] = Homo sapiens, DU-145, 72 h, transient transfectant DU145/pNCN3, 3-days incubation
[19] = Homo sapiens, DU-145, 72 h, transient transfectant DU145/pNCRMP1, 3-days incubation

## CN3: active fragment of hCRMP-1, 208-480 of SEQ ID NO: 1 (SEQ ID NOS: 17 and 39)
[1]
  selectivity on antiproliferative ability: around 20%

## O=c1[nH]cc(F)c(=O)[nH]1 [5-fluorouracil]
[2]
  improvement of chemosensitivity: no improvement of chemosensitivity

## full-length hCRMP-1: human collapsin response mediator protein-1, full-length protein with 572 amino acids (SEQ ID NO: 1)
[3]
  Anti-proliferation effect: inhibits cancer cell proliferation
[1]; DU145, transient transfection, 5-days incubation, normalized to pCI-neo control plasmid
  Anti-proliferation effect: inhibits cancer cell proliferation
[4]
  Anti-proliferation effect: inhibits cancer cell proliferation
[4]; listed as full-length CRMP-1
  Anti-proliferation effect: has antiproliferative activity
[5]
  Anti-proliferation effect: inhibits cancer cell proliferation
[6]
  Anti-proliferation effect: inhibits cancer cell proliferation
[7]
  antiproliferative activity: no antiproliferative activity

## O=P1(N(CCCl)CCCl)NCCCO1 (centres unmarked) [Cyclophosphamide, cyclophosphamide]
[8]; read-out: IC50 of chemical agent, transient transfectant PC-3/pCIneo (control plasmid), 3-days incubation
  IC50: > 100000 nM
[8]; read-out: IC50 of chemical agent, transient transfectant PC-3/pNCN3, 3-days incubation
  IC50: 55000 nM
[8]; read-out: IC50 of chemical agent, transient transfectant PC-3/pNCRMP1, 3-days incubation
  IC50: > 100000 nM
[9]; Homo sapiens, DU-145, 72 h
  IC50: > 100000 nM
[9]; transient transfectant DU145/pCIneo (control plasmid), 3-days incubation
  IC50: > 100000 nM
[9]; transient transfectant DU145/pNCN3, 3-days incubation
  IC50: > 100000 nM

## O=C(/C=C/c1ccc(O)c(O)c1)OCCc1ccccc1 [CAPE, caffeic acid phenethyl ester]
[10]; [12]
  IC50: > 50000 nM
[10]; [13]
  IC50: 23000 nM
[10]; [14]
  IC50: 29000 nM
[10]; [15]
  IC50: 27000 nM
[10]; [16]
  IC50: 17000 nM

## CN7: active fragment of hCRMP-1, 458-572 of SEQ ID NO: 1 (SEQ ID NOS: 25 and 43)
[1]
  selectivity on antiproliferative ability: 28%

## COc1cccc2c1C(=O)c1c(O)c3c(c(O)c1C2=O)C[C@@](O)(C(=O)CO)C[C@@H]3O[C@H]1C[C@H](N)[C@H](O)[C@H](C)O1 [Adriamycin ™ (doxorubicin), doxorubicin]
[10]; [12]
  IC50: 740 nM
[10]; [13]
  IC50: < 400 nM
[10]; [14]
  IC50: < 400 nM
[10]; [15]
  IC50: 500 nM
[10]; [16]
  IC50: < 400 nM
[11]; transient transfectant MCF-7/pCIneo (control plasmid), 3-days incubation
  IC50: 2130 nM
[11]; transient transfectant MCF-7/pNCN3, 3-days incubation
  IC50: 320 nM
[11]; transient transfectant MCF-7/pNCRMP1, 3-days incubation
  IC50: 100 nM
[9]; [17]
  IC50: 73 nM
[9]; [18]
  IC50: 60 nM
[9]; [19]
  IC50: 79 nM

## COc1cc([C@@H]2c3cc4c(cc3[C@@H](O[C@@H]3O[C@@H]5CO[C@@H](C)O[C@H]5[C@H](O)[C@H]3O)[C@H]3COC(=O)[C@H]23)OCO4)cc(OC)c1O [Etoposide, etoposide]
[8]; transient transfectant PC-3/pCIneo (control plasmid), 3-days incubation, read-out: IC50 of chemical agent
  IC50: 64000 nM
[8]; transient transfectant PC-3/pNCN3, 3-days incubation, read-out: IC50 of chemical agent
  IC50: > 100000 nM
[8]; transient transfectant PC-3/pNCRMP1, 3-days incubation, read-out: IC50 of chemical agent
  IC50: 33000 nM
[9]; [17]
  IC50: 460 nM
[9]; [18]
  IC50: 710 nM
[9]; [19]
  IC50: 710 nM
